Results as given in paper PMC5218480 (PLoS ONE, 2017).

Test system: MV-4-11 cells
Assay: Gene expression microarray analysis (Affymetrix PrimeView) and GSEA
Type: cell-based, human
Set-up: RFU PODN (11730768_x_at) / Fold change /veh PODN (11730768_x_at) / RFU LINC00158 (11744669_a_at) / Fold change /veh LINC00158 (11744669_a_at) / RFU DUSP10 (11751237_a_at) / Fold change /veh DUSP10 (11751237_a_at) / RFU ID3 (11757404_x_at) / Fold change /veh ID3 (11757404_x_at) / RFU PLEKHG5 (11737974_s_at) / Fold change /veh PLEKHG5 (11737974_s_at) / RFU LRRC4B (11730491_at) / Fold change /veh LRRC4B (11730491_at) / RFU GIMAP4 (11747438_a_at) / Fold change /veh GIMAP4 (11747438_a_at) / RFU KRT8 (11758183_x_at) / Fold change /veh KRT8 (11758183_x_at) / RFU CNN1 (11734310_a_at) / Fold change /veh CNN1 (11734310_a_at) / RFU VPS37D (11726825_at) / Fold change /veh VPS37D (11726825_at) / RFU C10orf10 (11716522_x_at) / Fold change /veh C10orf10 (11716522_x_at) / RFU KIR2DL2 /// KIR2DL4 /// KIR2DL5A /// KIR2DL5B /// KIR2DS1 /// KIR2DS2 /// KIR2DS3 /// KIR2DS4 /// KIR3DL3 /// KIR3DL3 /// KIR3DS1 (11738374_at) / Fold change /veh KIR2DL2 /// KIR2DL4 /// KIR2DL5A /// KIR2DL5B /// KIR2DS1 /// KIR2DS2 /// KIR2DS3 /// KIR2DS4 /// KIR3DL3 /// KIR3DL3 /// KIR3DS1 (11738374_at) / RFU C1QL1 (11718748_at) / Fold change /veh C1QL1 (11718748_at) / RFU TMPRSS4 (11747572_a_at) / Fold change /veh TMPRSS4 (11747572_a_at) / RFU HAMP (11756126_x_at) / Fold change /veh HAMP (11756126_x_at) / RFU RNFT2 (11725882_a_at) / Fold change /veh RNFT2 (11725882_a_at) / RFU NR4A2 (11747474_a_at) / Fold change /veh NR4A2 (11747474_a_at) / RFU ABCC12 (11746883_a_at) / Fold change /veh ABCC12 (11746883_a_at) / RFU TMEM136 (11760407_x_at) / Fold change /veh TMEM136 (11760407_x_at) / RFU CLDN22 /// WWC2 (11732394_at) / Fold change /veh CLDN22 /// WWC2 (11732394_at) / RFU HLA-DPB1 (11760878_x_at) / Fold change /veh HLA-DPB1 (11760878_x_at) / RFU SPINT1 (11716480_a_at) / Fold change /veh SPINT1 (11716480_a_at) / RFU GAP43 (11754022_s_at) / Fold change /veh GAP43 (11754022_s_at) / RFU A4GNT (11735810_at) / Fold change /veh A4GNT (11735810_at) / RFU PRB3 (11715151_x_at) / Fold change /veh PRB3 (11715151_x_at) / RFU TUBB4B (11761932_at) / Fold change /veh TUBB4B (11761932_at) / RFU CAPN14 (11732068_a_at) / Fold change /veh CAPN14 (11732068_a_at) / RFU TMCC2 (11721928_a_at) / Fold change /veh TMCC2 (11721928_a_at) / RFU IRGQ (11745062_a_at) / Fold change /veh IRGQ (11745062_a_at) / RFU FAM174B (11720279_a_at) / Fold change /veh FAM174B (11720279_a_at) / RFU TMPRSS4 (11748680_a_at) / Fold change /veh TMPRSS4 (11748680_a_at) / RFU FAM212B (11763350_a_at) / Fold change /veh FAM212B (11763350_a_at) / RFU PLEKHG5 (11743358_a_at) / Fold change /veh PLEKHG5 (11743358_a_at) / RFU ZSCAN30 (11745921_a_at) / Fold change /veh ZSCAN30 (11745921_a_at) / RFU CMKLR1 (11741424_a_at) / Fold change /veh CMKLR1 (11741424_a_at) / RFU LOC101060620 /// MAPK8IP1 (11723275_at) / Fold change /veh LOC101060620 /// MAPK8IP1 (11723275_at) / RFU SPTSSB (11747773_x_at) / Fold change /veh SPTSSB (11747773_x_at) / RFU PRSS12 (11739890_at) / Fold change /veh PRSS12 (11739890_at) / RFU BIN1 (11741810_x_at) / Fold change /veh BIN1 (11741810_x_at) / RFU WNT11 (11732464_a_at) / Fold change /veh WNT11 (11732464_a_at) / RFU C10orf10 (11716521_a_at) / Fold change /veh C10orf10 (11716521_a_at) / RFU C5orf56 (11738089_at) / Fold change /veh C5orf56 (11738089_at) / RFU CYB561 (11721691_x_at) / Fold change /veh CYB561 (11721691_x_at) / RFU ANKRD19P (11752326_a_at) / Fold change /veh ANKRD19P (11752326_a_at) / RFU OR2T12 /// OR2T33 /// OR2T8 (11738714_s_at) / Fold change /veh OR2T12 /// OR2T33 /// OR2T8 (11738714_s_at) / RFU VCAN (11748164_a_at) / Fold change /veh VCAN (11748164_a_at) / RFU JSRP1 (11732532_at) / Fold change /veh JSRP1 (11732532_at) / RFU KRTAP10-11 (11738290_x_at) / Fold change /veh KRTAP10-11 (11738290_x_at) / RFU MYO3A (11730013_a_at) / Fold change /veh MYO3A (11730013_a_at) / RFU EBF3 (11725865_a_at) / Fold change /veh EBF3 (11725865_a_at) / RFU CAMK2N1 (11719241_x_at) / Fold change /veh CAMK2N1 (11719241_x_at) / RFU C5orf56 (11738088_a_at) / Fold change /veh C5orf56 (11738088_a_at) / RFU OLFML3 (11715873_a_at) / Fold change /veh OLFML3 (11715873_a_at) / RFU LOC100653217 /// NTM (11731650_a_at) / Fold change /veh LOC100653217 /// NTM (11731650_a_at) / RFU MAPK11 (11762145_a_at) / Fold change /veh MAPK11 (11762145_a_at) / RFU FIZ1 (11724087_x_at) / Fold change /veh FIZ1 (11724087_x_at) / RFU OASL (11726364_x_at) / Fold change /veh OASL (11726364_x_at) / RFU SOX15 (11748057_x_at) / Fold change /veh SOX15 (11748057_x_at) / RFU CD79A (11719716_a_at) / Fold change /veh CD79A (11719716_a_at) / RFU HIST1H1D (11736915_at) / Fold change /veh HIST1H1D (11736915_at) / RFU CASKIN2 (11723855_a_at) / Fold change /veh CASKIN2 (11723855_a_at) / RFU LOC730098 (11760151_x_at) / Fold change /veh LOC730098 (11760151_x_at) / RFU OR4N2 (11742367_at) / Fold change /veh OR4N2 (11742367_at) / RFU PRRT2 (11749266_a_at) / Fold change /veh PRRT2 (11749266_a_at) / RFU SNX32 (11753110_a_at) / Fold change /veh SNX32 (11753110_a_at) / RFU CDHR5 (11726645_a_at) / Fold change /veh CDHR5 (11726645_a_at) / RFU RCAN1 (11760418_a_at) / Fold change /veh RCAN1 (11760418_a_at) / RFU FAM167A (11723789_a_at) / Fold change /veh FAM167A (11723789_a_at) / RFU FAM26E (11764081_at) / Fold change /veh FAM26E (11764081_at) / RFU ISYNA1 (11749810_s_at) / Fold change /veh ISYNA1 (11749810_s_at) / RFU ACY1 (11761880_at) / Fold change /veh ACY1 (11761880_at) / RFU 11764098_at / Fold change /veh 11764098_at / RFU SAMD14 (11745864_x_at) / Fold change /veh SAMD14 (11745864_x_at) / RFU NPB (11741838_a_at) / Fold change /veh NPB (11741838_a_at) / RFU TMPRSS6 (11731388_a_at) / Fold change /veh TMPRSS6 (11731388_a_at) / RFU KRTAP10-2 (11738614_at) / Fold change /veh KRTAP10-2 (11738614_at) / RFU ARHGAP8 /// PRR5-ARHGAP8 (11727945_x_at) / Fold change /veh ARHGAP8 /// PRR5-ARHGAP8 (11727945_x_at) / RFU KRTAP5-7 /// NADSYN1 (11734609_at) / Fold change /veh KRTAP5-7 /// NADSYN1 (11734609_at) / RFU RASL12 (11751679_a_at) / Fold change /veh RASL12 (11751679_a_at) / RFU CDKN2B (11736163_a_at) / Fold change /veh CDKN2B (11736163_a_at) / RFU PRF1 (11729649_at) / Fold change /veh PRF1 (11729649_at) / RFU, ZNF638 /// ZNF638-IT1 / Fold change vs veh, ZNF638 /// ZNF638-IT1 / RFU, PANK3 / Fold change vs veh, PANK3 / RFU, SH3YL1 / Fold change vs veh, SH3YL1 / RFU, ZEB2 / Fold change vs veh, ZEB2 / RFU, NRIP1 / Fold change vs veh, NRIP1 / RFU, PTTG1IP / Fold change vs veh, PTTG1IP / RFU, CAPN2 / Fold change vs veh, CAPN2 / RFU, MED14 / Fold change vs veh, MED14 / RFU, SNORA58 / Fold change vs veh, SNORA58 / RFU, C1orf63 / Fold change vs veh, C1orf63 / RFU, LRRFIP1 / Fold change vs veh, LRRFIP1 / RFU, NDUFAF7 / Fold change vs veh, NDUFAF7 / RFU, SLC12A2 / Fold change vs veh, SLC12A2 / RFU, IBTK / Fold change vs veh, IBTK / RFU, ESF1 / Fold change vs veh, ESF1 / Fold change vs veh, TMEM50B / RFU, TAOK1 / Fold change vs veh, TAOK1 / RFU, ACBD3 / Fold change vs veh, ACBD3 / RFU, TMA16 / Fold change vs veh, TMA16 / RFU, RWDD3 / Fold change vs veh, RWDD3 / RFU, BCAT1 / Fold change vs veh, BCAT1 / RFU, EDEM3 / Fold change vs veh, EDEM3 / RFU, TMEM33 / Fold change vs veh, TMEM33 / RFU, WDR75 / Fold change vs veh, WDR75 / RFU, AHCTF1 / Fold change vs veh, AHCTF1 / RFU, TFRC / Fold change vs veh, TFRC / RFU, ZDHHC17 / Fold change vs veh, ZDHHC17 / RFU, NOM1 / Fold change vs veh, NOM1 / RFU, ARL8B / Fold change vs veh, ARL8B / RFU, ZBTB11 / Fold change vs veh, ZBTB11 / RFU, TAMM41 / Fold change vs veh, TAMM41 / RFU, KIAA1704 /// LOC100996395 / Fold change vs veh, KIAA1704 /// LOC100996395 / RFU, ING1 / Fold change vs veh, ING1 / RFU, TRMT61B / Fold change vs veh, TRMT61B / RFU, FUBP3 / Fold change vs veh, FUBP3 / RFU, TP53 / Fold change vs veh, TP53 / RFU, TNKS2 / Fold change vs veh, TNKS2 / RFU, ZFP14 / Fold change vs veh, ZFP14 / RFU, ACTR2 / Fold change vs veh, ACTR2 / RFU, PPP3R1 / Fold change vs veh, PPP3R1 / RFU, PIK3R1 / Fold change vs veh, PIK3R1 / RFU, HNRNPA1 / Fold change vs veh, HNRNPA1 / RFU, RNF170 / Fold change vs veh, RNF170 / RFU, ZNF28 / Fold change vs veh, ZNF28 / RFU, RNGTT / Fold change vs veh, RNGTT / RFU, OGT / Fold change vs veh, OGT / RFU, BRD1 / Fold change vs veh, BRD1 / RFU, MARS / Fold change vs veh, MARS / RFU, ZNF655 / Fold change vs veh, ZNF655 / RFU, FAHD1 / Fold change vs veh, FAHD1 / RFU, BDP1 / Fold change vs veh, BDP1 / RFU, LRRCC1 / Fold change vs veh, LRRCC1 / RFU, ARID1A / Fold change vs veh, ARID1A / RFU, ZNF146 / Fold change vs veh, ZNF146 / RFU, ZNF330 / Fold change vs veh, ZNF330 / RFU, GPN3 / Fold change vs veh, GPN3 / RFU, C9orf123 / Fold change vs veh, C9orf123 / RFU, N4BP2L2 / Fold change vs veh, N4BP2L2 / RFU, ARFIP1 / Fold change vs veh, ARFIP1 / RFU, FAM179B / Fold change vs veh, FAM179B / RFU, BCL10 / Fold change vs veh, BCL10 / RFU, UHRF1BP1L / Fold change vs veh, UHRF1BP1L / RFU, BET1 / Fold change vs veh, BET1 / RFU, CNOT2 / Fold change vs veh, CNOT2 / RFU, ZNF268 / Fold change vs veh, ZNF268 / Fold change vs veh, ZNF507 / RFU, DGCR2 / Fold change vs veh, DGCR2 / RFU, WDSUB1 / Fold change vs veh, WDSUB1 / Fold change vs veh, HSP90B1 /// MIR3652 / RFU, ADSS / Fold change vs veh, ADSS / RFU, GK / Fold change vs veh, GK / RFU, ZNF148 / Fold change vs veh, ZNF148 / RFU, TAF9 / Fold change vs veh, TAF9 / RFU, SLC1A5 / Fold change vs veh, SLC1A5 / RFU, SLMO2 / Fold change vs veh, SLMO2 / RFU, ABCC4 / Fold change vs veh, ABCC4 / RFU, LOC101060439 /// RAP1B / Fold change vs veh, LOC101060439 /// RAP1B / RFU, RFX7 / Fold change vs veh, RFX7 / RFU, GTPBP10 / Fold change vs veh, GTPBP10 / RFU, CNEP1R1 / Fold change vs veh, CNEP1R1 / RFU, BIVM-ERCC5 /// ERCC5 / Fold change vs veh, BIVM-ERCC5 /// ERCC5 / RFU, ILF3 / Fold change vs veh, ILF3 / RFU 11762660_at / Fold change /veh 11762660_at / RFU VCAN (11757783_s_at) / Fold change /veh VCAN (11757783_s_at) / RFU DDX43 (11728927_at) / Fold change /veh DDX43 (11728927_at) / RFU KRT8 (11758188_x_at) / Fold change /veh KRT8 (11758188_x_at) / RFU NKD1 (11759106_at) / Fold change /veh NKD1 (11759106_at) / RFU SRD5A1 (11742802_a_at) / Fold change /veh SRD5A1 (11742802_a_at) / RFU TPSAB1 /// TPSB2 (11721975_s_at) / Fold change /veh TPSAB1 /// TPSB2 (11721975_s_at) / RFU GSTM3 (11746129_a_at) / Fold change /veh GSTM3 (11746129_a_at) / RFU IL23R (11737362_x_at) / Fold change /veh IL23R (11737362_x_at) / RFU TMEM51 (11727254_a_at) / Fold change /veh TMEM51 (11727254_a_at) / RFU PIWIL2 (11732686_x_at) / Fold change /veh PIWIL2 (11732686_x_at) / RFU ORM1 (11744905_x_at) / Fold change /veh ORM1 (11744905_x_at) / RFU CCDC152 (11743942_at) / Fold change /veh CCDC152 (11743942_at) / RFU ECM1 (11717891_a_at) / Fold change /veh ECM1 (11717891_a_at) / RFU IL23R (11748794_a_at) / Fold change /veh IL23R (11748794_a_at) / RFU TNFAIP8L3 (11732012_x_at) / Fold change /veh TNFAIP8L3 (11732012_x_at) / RFU MBOAT4 (11741988_at) / Fold change /veh MBOAT4 (11741988_at) / RFU 11764193_at / Fold change /veh 11764193_at / RFU TMEM53 (11763286_at) / Fold change /veh TMEM53 (11763286_at) / RFU MAGEB2 (11727129_at) / Fold change /veh MAGEB2 (11727129_at) / RFU TMEM200A (11744735_a_at) / Fold change /veh TMEM200A (11744735_a_at) / RFU CCDC152 (11751479_a_at) / Fold change /veh CCDC152 (11751479_a_at) / RFU FAM211A (11726209_a_at) / Fold change /veh FAM211A (11726209_a_at) / RFU RGS16 (11746705_a_at) / Fold change /veh RGS16 (11746705_a_at) / RFU VCAN (11755009_s_at) / Fold change /veh VCAN (11755009_s_at) / RFU RHOB (11743442_s_at) / Fold change /veh RHOB (11743442_s_at) / RFU RGS16 (11720943_a_at) / Fold change /veh RGS16 (11720943_a_at) / RFU RGS16 (11720944_at) / Fold change /veh RGS16 (11720944_at) / RFU, VPS4B / Fold change vs veh, VPS4B / RFU, CREB1 / Fold change vs veh, CREB1 / RFU, DNAJC13 / Fold change vs veh, DNAJC13 / RFU, GNAQ / Fold change vs veh, GNAQ / RFU, CDK5R1 / Fold change vs veh, CDK5R1 / RFU, ZRANB3 / Fold change vs veh, ZRANB3 / RFU, CUL4A / Fold change vs veh, CUL4A / RFU, CCNY / Fold change vs veh, CCNY / RFU, UFL1 / Fold change vs veh, UFL1 / RFU, COG3 / Fold change vs veh, COG3 / RFU, DIAPH2 / Fold change vs veh, DIAPH2 / RFU, SKA2 / Fold change vs veh, SKA2 / RFU, AFF3 / Fold change vs veh, AFF3 / RFU, LMF1 / Fold change vs veh, LMF1 / RFU, IPO11 / Fold change vs veh, IPO11 / RFU, DFFB / Fold change vs veh, DFFB / RFU, FOXP1 / Fold change vs veh, FOXP1 / RFU, CARD8 / Fold change vs veh, CARD8 / RFU, STRN3 / Fold change vs veh, STRN3 / RFU, ADK / Fold change vs veh, ADK / RFU, RASSF2 / Fold change vs veh, RASSF2 / RFU, WIPF1 / Fold change vs veh, WIPF1 / RFU, LARP1B / Fold change vs veh, LARP1B / RFU, RASA1 / Fold change vs veh, RASA1 / RFU, RB1 / Fold change vs veh, RB1 / RFU, PPFIA1 / Fold change vs veh, PPFIA1 / RFU, MAT2A / Fold change vs veh, MAT2A / RFU, CCT5 / Fold change vs veh, CCT5 / RFU, WDR92 / Fold change vs veh, WDR92 / RFU, CUX1 / Fold change vs veh, CUX1 / RFU, TTC7A / Fold change vs veh, TTC7A / RFU, TMEM135 / Fold change vs veh, TMEM135 / RFU, DEPTOR / Fold change vs veh, DEPTOR / RFU, CPM / Fold change vs veh, CPM / RFU, DNAJB6 / Fold change vs veh, DNAJB6 / RFU, CACNA2D3 / Fold change vs veh, CACNA2D3 / RFU, DTX4 / Fold change vs veh, DTX4 / RFU, TFCP2 / Fold change vs veh, TFCP2 / RFU, GMCL1 /// GMCL1P1 / Fold change vs veh, GMCL1 /// GMCL1P1 / RFU, AEBP2 / Fold change vs veh, AEBP2 / RFU, SNHG1 /// SNORD22 /// SNORD25 /// SNORD26 /// SNORD27 /// SNORD28 /// SNORD29 /// SNORD31 / Fold change vs veh, SNHG1 /// SNORD22 /// SNORD25 /// SNORD26 /// SNORD27 /// SNORD28 /// SNORD29 /// SNORD31 / Fold change (Aza/veh), C12orf56 (ProbeSet 11735607_a_at) / Fold change (ACY-1035/veh), C12orf56 (ProbeSet 11735607_a_at) / Fold change (Aza/veh), FGFR1OP (ProbeSet 11751329_s_at) / Fold change (ACY-1035/veh), FGFR1OP (ProbeSet 11751329_s_at) / Fold change (Aza/veh), VPS36 (ProbeSet 11739960_a_at) / Fold change (ACY-1035/veh), VPS36 (ProbeSet 11739960_a_at) / RFU SYPL1 (11715823_x_at) / Fold change /veh SYPL1 (11715823_x_at) / RFU IGFBP7 (11715501_s_at) / Fold change /veh IGFBP7 (11715501_s_at) / RFU REEP3 (11722064_at) / Fold change /veh REEP3 (11722064_at) / RFU IGLL1 (11728026_x_at) / Fold change /veh IGLL1 (11728026_x_at): dose or concentration left out as unconfirmed
Details: MV-4-11 cells, 48 hours

Nc1ccc(-c2cccs2)cc1NC(=O)c1ccc2c(c1)cc(C1CC1)n2CCN1CCOCC1 [ACY-1035]
RFU DDX43 (11728927_at): 10.07 RFU
